Data taken from patent US8318769B2, “Substituted sulfonamide compounds” (Gruenethal GmbH, priority 2008, dated 2012).
Like-named read-outs stand apart in the source and are kept apart here.

Legend:
[1] = target: T1, bradykinin 1 receptor (B1R) of the rat (Rattus norvegicus, UniProt P97583); assay: FLIPR Ca2+ assay, B1R antagonism, rat; assay type: cell-based
T1 construct: expressed in transfected cells
T1 sequence (P97583 1-337): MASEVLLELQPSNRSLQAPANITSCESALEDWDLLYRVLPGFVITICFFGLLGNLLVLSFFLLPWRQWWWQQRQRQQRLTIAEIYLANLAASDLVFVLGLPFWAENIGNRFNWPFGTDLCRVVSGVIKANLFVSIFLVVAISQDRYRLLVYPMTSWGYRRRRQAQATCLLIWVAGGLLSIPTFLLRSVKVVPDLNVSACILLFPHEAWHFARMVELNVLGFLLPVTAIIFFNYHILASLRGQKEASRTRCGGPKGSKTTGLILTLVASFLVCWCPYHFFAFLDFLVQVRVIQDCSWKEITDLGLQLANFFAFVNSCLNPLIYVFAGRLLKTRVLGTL
Summary of the method: (§1)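 Antagonism is given as % of maximum achievable suppression of agonist-evoked Ca2+ influx, measured by Fluo-4 peak fluorescence in FLIPR. Stable hB1R or rB1R CHO K1 lines received 10 μM compound for 10-20 min before EC80 Lys-Des-Arg9-bradykinin (human) or Des-Arg9-bradykinin (rat).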

[2] = target: T2, human bradykinin 1 receptor (B1R) (Homo sapiens, UniProt P46663); assay: FLIPR Ca2+ assay, B1R antagonism, human; assay type: cell-based
T2 construct: expressed in transfected cells
T2 sequence (P46663 1-353): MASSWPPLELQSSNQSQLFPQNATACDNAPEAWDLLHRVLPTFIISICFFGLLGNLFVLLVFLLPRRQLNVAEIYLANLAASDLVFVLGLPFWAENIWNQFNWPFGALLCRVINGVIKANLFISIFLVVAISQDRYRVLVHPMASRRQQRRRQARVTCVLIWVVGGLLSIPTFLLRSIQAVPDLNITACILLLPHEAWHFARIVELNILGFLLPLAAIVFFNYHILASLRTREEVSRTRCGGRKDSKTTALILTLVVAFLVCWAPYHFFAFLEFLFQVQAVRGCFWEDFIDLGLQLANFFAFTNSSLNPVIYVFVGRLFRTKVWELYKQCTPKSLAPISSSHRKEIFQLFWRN
Summary of the method: as §1

[3] = CHO-K1, 10 μM test substance, CHO K1 cells with rat B1R gene (rB1R cells), Des-Arg9-bradykinin at EC80, % inhibition compared with the maximum achievable inhibition, read-out: B1R antagonism, rat [10 μM] % inhibition
[4] = 10 μM test substance, CHO K1 cells with human B1R gene (hB1R cells), Lys-Des-Arg9-bradykinin at EC80, % inhibition compared with the maximum achievable inhibition, read-out: B1R antagonism, human [10 μM] % inhibition

| Compound | inhibition at 10 µM [1, 3] | inhibition at 10 µM [2, 4] | further results |
| --- | --- | --- | --- |
| O=C(COCC1CCc2ccccc2N1S(=O)(=O)c1ccc(Cl)c(Cl)c1)N1CCC(OCCN2CCCC2)(c2cccnc2)CC1 (centres unmarked) [Example 24, 2-((1-(3,4-dichlorophenylsulfonyl)-1,2,3,4-tetrahydroquinolin-2-yl)methoxy)-1-(4-(pyridin-3-yl)-4-(2-(pyrrolidin-1-yl)ethoxy)piperidin-1-yl)ethanone] | 101% | 69% |  |
| CN1CCN(CCCOC2(c3cccnc3)CCN(C(=O)COCC3CCc4ccccc4N3S(=O)(=O)c3ccc(Cl)c(Cl)c3)CC2)CC1 (centres unmarked) [Example 37, 2-((1-(3,4-dichlorophenylsulfonyl)-1,2,3,4-tetrahydroquinolin-2-yl)methoxy)-1-(4-(3-(4-methylpiperazin-1-yl)propoxy)-4-(pyridin-3-yl)piperidin-1-yl)ethanone] | 99% | 77% |  |
| COc1cc(C)c(S(=O)(=O)N(C)CCOCC(=O)N2CCC(OCCN3CCCC3)(c3cccnc3)CC2)c(C)c1C [Example 113, 4-methoxy-N,2,3,6-tetramethyl-N-[2-[2-oxo-2-[4-pyridin-3-yl-4-(2-pyrrolidin-1-yl-ethoxy)-piperidin-1-yl]-ethoxy]-ethyl]-benzenesulfonic acid amide] | 103% | 100% |  |
| O=C(COCCN(C1CCc2ccccc21)S(=O)(=O)c1ccc(Cl)cc1Cl)N1CCC(OCCN2CCCC2)(c2cccnc2)CC1 (centres unmarked) [Example 7, 2,4-dichloro-N-(2,3-dihydro-1H-inden-1-yl)-N-(2-(2-oxo-2-(4-(pyridin-3-yl)-4-(2-(pyrrolidin-1-yl)ethoxy)piperidin-1-yl)ethoxy)ethyl)benzenesulfonamide] | 94% | 99% |  |
| COc1cc(C)c(S(=O)(=O)N2CCCCC2CCCC(=O)N2CCC(OCCN3CCCC3)(c3ccncc3)CC2)c(C)c1 (centres unmarked) [Example 91, 4-[1-[(4-methoxy-2,6-dimethyl-phenyl)sulfonyl]-piperidin-2-yl]-1-[4-pyridin-4-yl-4-(2-pyrrolidin-1-yl-ethoxy)-piperidin-1-yl]-butan-1-one] |  |  | B1R antagonism, rat [10 μM] % inhibition ([1]; 10 μM test substance, CHO K1 cells with rat B1R gene (rB1R cells), Des-Arg9-bradykinin at EC80, % inhibition compared with the maximum achievable inhibition, 10 µM): 103%; B1R antagonism, human [10 μM] % inhibition ([2]; 10 μM test substance, CHO K1 cells with human B1R gene (hB1R cells), Lys-Des-Arg9-bradykinin at EC80, % inhibition compared with the maximum achievable inhibition): 100% |
| COc1cc(C)c(S(=O)(=O)N(CCOCC(=O)N2CCC(OCCN3CCCC3)(c3cccnc3)CC2)Cc2cccnc2)c(C)c1 [Example 5, 4-methoxy-2,6-dimethyl-N-(2-(2-oxo-2-(4-(pyridin-3-yl)-4-(2-(pyrrolidin-1-yl)ethoxy)piperidin-1-yl)ethoxy)ethyl)-N-(pyridin-3-ylmethyl)benzenesulfonamide] | 102% | 100% |  |
| COc1cc(C)c(S(=O)(=O)N(CCOCC(=O)N2CCC(OCCN3CCCC3)(c3cccc(F)c3)CC2)c2ccccc2)c(C)c1 [Example 99, N-[2-[2-[4-(3-fluorophenyl)-4-(2-pyrrolidin-1-yl-ethoxy)-piperidin-1-yl]-2-oxo-ethoxy]-ethyl]-4-methoxy-2,6-dimethyl-N-phenyl-benzenesulfonic acid amide] | 97% | 99% |  |
| O=C(CC(NS(=O)(=O)c1ccc2ccccc2c1)c1ccccc1)N1CCC(OCCCN2CCCC2)(c2cccnc2)CC1 (centres unmarked) [Example 44, N-(3-oxo-1-phenyl-3-(4-(pyridin-3-yl)-4-(3-(pyrrolidin-1-yl)propoxy)piperidin-1-yl)propyl)naphthalene-2-sulfonamide] | 102% | 95% |  |
| Cc1cccc(Cl)c1S(=O)(=O)N(CCOCC(=O)N1CCC(OCCN2CCCC2)(c2cccc(F)c2)CC1)C1CC1 [Example 62, 2-chloro-N-cyclopropyl-N-[2-[2-[4-(3-fluorophenyl)-4-(2-pyrrolidin-1-yl-ethoxy)-piperidin-1-yl]-2-oxo-ethoxy]-ethyl]-6-methyl-benzenesulfonic acid amide] | 102% | 100% |  |
| COc1cc(C)c(S(=O)(=O)N2CCCCC2CCCC(=O)N2CCC(OCCN3CCCC3)(c3cccnc3)CC2)c(C)c1 (centres unmarked) [Example 87, 4-[1-[(4-methoxy-2,6-dimethyl-phenyl)sulfonyl]-piperidin-2-yl]-1-[4-pyridin-3-yl-4-(2-pyrrolidin-1-yl-ethoxy)-piperidin-1-yl]-butan-1-one] | 102% | 100% |  |
| O=C(CC1CCCCN1S(=O)(=O)c1cccc(C(F)(F)F)c1)N1CCC(OCCCN2CCCC2)(c2cccnc2)CC1 (centres unmarked) [Example 42, 1-(4-(pyridin-3-yl)-4-(3-(pyrrolidin-1-yl)propoxy)piperidin-1-yl)-2-(1-(3-(trifluoromethyl)phenylsulfonyl)piperidin-2-yl)ethanone] | 48% | 52% |  |
| O=C(COCCN(C(c1ccccc1)c1ccccc1)S(=O)(=O)c1ccc(Cl)cc1Cl)N1CCC(OCCN2CCCC2)(c2cccnc2)CC1 [Example 4, N-benzhydryl-2,4-dichloro-N-(2-(2-oxo-2-(4-(pyridin-3-yl)-4-(2-(pyrrolidin-1-yl)ethoxy)piperidin-1-yl)ethoxy)ethyl)benzenesulfonamide] |  |  | inhibition at 10 µM ([1]; CHO-K1, read-out: B1R antagonism, rat [10 μM] % inhibition): 98%; inhibition at 10 µM ([2]; CHO-K1, read-out: B1R antagonism, human [10 μM] % inhibition): 99% |

Second part, led by results:

| inhibition at 10 µM [1, 3] | inhibition at 10 µM [2, 4] | Compound | further results |
| --- | --- | --- | --- |
| 98% | 100% | Cc1cccc(Cl)c1S(=O)(=O)N1CCCCC1CCCC(=O)N1CCC(OCCN2CCCC2)(c2cccc(F)c2)CC1 (centres unmarked) [Example 85, 4-[1-[(2-chloro-6-methyl-phenyl)sulfonyl]-piperidin-2-yl]-1-[4-(3-fluorophenyl)-4-(2-pyrrolidin-1-yl-ethoxy)-piperidin-1-yl]-butan-1-one] |  |
| 101% | 100% | COc1cc(C)c(S(=O)(=O)N(CCOCC(=O)N2CCC(OCCN3CCCC3)(c3cccnc3)CC2)C2CC2)c(C)c1 [Example 3, N-cyclopropyl-4-methoxy-2,6-dimethyl-N-(2-(2-oxo-2-(4-(pyridin-3-yl)-4-(2-(pyrrolidin-1-yl)ethoxy)piperidin-1-yl)ethoxy)ethyl)benzenesulfonamide] |  |
| 103% | 100% | COc1cc(C)c(S(=O)(=O)N2CCCCC2COCC(=O)N2CCC(OCCN3CCCC3)(c3ccncc3)CC2)c(C)c1 (centres unmarked) [Example 84, 2-[[1-[(4-methoxy-2,6-dimethyl-phenyl)sulfonyl]-piperidin-2-yl]-methoxy]-1-[4-pyridin-4-yl-4-(2-pyrrolidin-1-yl-ethoxy)-piperidin-1-yl]-ethanone] |  |
| 96% | 99% | COc1cc(C)c(S(=O)(=O)N2CCCC[C@H]2COCC(=O)N2CCC(OCCN3CCCC3)(c3cccc(C(F)(F)F)c3)CC2)c(C)c1 [Example 54, 2-[[(2S)-1-[(4-methoxy-2,6-dimethyl-phenyl)sulfonyl]-piperidin-2-yl]-methoxy]-1-[4-(2-pyrrolidin-1-yl-ethoxy)-4-[3-(trifluoromethyl)phenyl]-piperidin-1-yl]-ethanone] |  |
| 50% | 101% | Cc1cc(S(=O)(=O)N2CCCCC2CCC(=O)N2CCC(OCCN3CCCCC3)(c3cccnc3)CC2)c(C)cc1Cl (centres unmarked) [Example 13, 3-(1-(4-chloro-2,5-dimethylphenylsulfonyl)piperidin-2-yl)-1-(4-(2-(piperidin-1-yl)ethoxy)-4-(pyridin-3-yl)piperidin-1-yl)propan-1-one] |  |
| 100% | 99% | COc1cc(C)c(S(=O)(=O)N2c3ccccc3CC[C@H]2COCC(=O)N2CCC(OCCN3CCCC3)(c3cccnc3)CC2)c(C)c1 [Example 1, (S)-2-((1-(4-methoxy-2,6-dimethylphenylsulfonyl)-1,2,3,4-tetrahydroquinolin-2-yl)methoxy)-1-(4-(pyridin-3-yl)-4-(2-(pyrrolidin-1-yl)ethoxy)piperidin-1-yl)ethanone] |  |
| 102% | 100% | COc1cc(C)c(S(=O)(=O)N2CCCC[C@H]2COCC(=O)N2CCC(OCCn3ccnc3)(c3cccnc3)CC2)c(C)c1 [Example 60, 1-[4-[2-(1H-imidazol-1-yl)-ethoxy]-4-pyridin-3-yl-piperidin-1-yl]-2-[[(2S)-1-[(4-methoxy-2,6-dimethyl-phenyl)sulfonyl]-piperidin-2-yl]-methoxy]-ethanone] |  |
